Data on twelve compounds can be found in patent publication US20260256925A1, “INDAZOLE DERIVATIVES AS ESTROGEN RECEPTOR DEGRADERS” (REGENTS OF THE UNIVERSITY OF MICHIGAN, priority 2022, published 2026).

The target of one test is T1, ER (Homo sapiens, UniProt P03372).
T1 construct: endogenous in cells; probably T47D or MCF-7
T1 sequence (P03372 1-595): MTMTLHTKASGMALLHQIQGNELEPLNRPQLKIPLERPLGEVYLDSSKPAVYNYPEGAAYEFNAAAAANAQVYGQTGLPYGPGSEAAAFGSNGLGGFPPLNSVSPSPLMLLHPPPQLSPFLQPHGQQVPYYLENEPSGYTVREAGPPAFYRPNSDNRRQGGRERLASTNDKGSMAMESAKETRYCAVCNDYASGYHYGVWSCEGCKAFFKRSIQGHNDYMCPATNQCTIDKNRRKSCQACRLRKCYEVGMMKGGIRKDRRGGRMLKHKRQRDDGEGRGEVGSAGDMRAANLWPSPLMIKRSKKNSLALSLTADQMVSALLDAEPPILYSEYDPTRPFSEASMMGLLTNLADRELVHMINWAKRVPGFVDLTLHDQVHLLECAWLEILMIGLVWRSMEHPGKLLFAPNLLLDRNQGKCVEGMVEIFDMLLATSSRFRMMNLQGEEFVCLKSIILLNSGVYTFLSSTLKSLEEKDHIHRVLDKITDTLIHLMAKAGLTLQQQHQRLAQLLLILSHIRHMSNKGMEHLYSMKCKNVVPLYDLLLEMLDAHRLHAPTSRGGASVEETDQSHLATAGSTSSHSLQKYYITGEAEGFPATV
The test can be described thus: In-cell western blot analysis, relative ER percentage (compounds B1-B126). Type of test: cell-based. As to conditions: ER degradation, 16 hours, read-out: ICW DC50. A digest of the protocol: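 Readout was a two-colour infrared in-cell western of formaldehyde-fixed cells after 16 h compound exposure at 0.5% DMSO, with 40,000 or 10,000 cells/well plated the previous night. Relative ER percentage compares treated wells against untreated/DMSO-treated wells taken as 100%.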

A short description of test [1]: Cell growth assay, WST-8 (compounds B1-B126). Type of test: cell-based. As to conditions: 96 h; T47D cell line, WST-8, 4 days; read-out: Cell growth inhibition in T47D cell line IC50. In short, it runs like this:
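Read-out is WST-8 absorbance at 450 nm (2.5 h, 37° C) as a fraction of vehicle control, from three separate repeats. Compound exposure lasted 4 days, starting one day after plating 1500 cells/well.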
Background: Formazan colour is commonly taken as a measure of viable cells.

On to `C[C@@H]1Cc2c(ccc3[nH]ncc23)[C@@H](c2c(F)cc(N3CC4(CCN(C(=O)CN5CCN6c7cc8c(cc7OC[C@@H]6C5)C(=O)N(C5CCC(=O)NC5=O)C8)C4)C3)cc2F)N1CC(F)F` (stereo partly drawn) [Compound B36, 3-((S)-3-(2-(2-(4-((6S,8R)-7-(2,2-difluoroethyl)-8-methyl-6,7,8,9-tetrahydro-3H-pyrazolo[4,3-f]isoquinolin-6-yl)-3,5-difluorophenyl)-2,6-diazaspiro[3.4]octan-6-yl)-2-oxoethyl)-8-oxo-1,2,3,4,4a,5,8,10-octahydro-9H-pyrazino[1′,2′:4,5][1,4]oxazino[2,3-f]isoindol-9-yl)piperidine-2,6-dione], for which, on ER, the DC50 (usually the concentration giving 50% degradation) is less than 10 nM. Also, the half-maximal inhibitory concentration (IC50) (in general, the midpoint of a concentration-inhibition curve) in test [1] is less than 1 nM.

On to `C[C@@H]1Cc2c(ccc3[nH]ncc23)[C@@H](c2c(F)cc(N3CCC(CN4CCN5c6c(ccc7c6CN(C6CCC(=O)NC6=O)C7=O)OC[C@@H]5C4)CC3)cc2F)N1CC(F)F` (stereo partly drawn) [Compound B99, 3-((S)-9-((1-(4-((6S,8R)-7-(2,2-difluoroethyl)-8-methyl-6,7,8,9-tetrahydro-3H-pyrazolo[4,3-f]isoquinolin-6-yl)-3,5-difluorophenyl)piperidin-4-yl)methyl)-3-oxo-1,3,7,7a,8,9,10,11-octahydro-2H-pyrazino[1′,2′:4,5][1,4]oxazino[3,2-e]isoindol-2-yl)piperidine-2,6-dione], for which the half-maximal degradation concentration (DC50) at ER fell in the range of 10 to 100 nM. The IC50 in test [1] is greater than 10 nM.

With `C[C@@H]1Cc2c(ccc3[nH]ncc23)[C@@H](c2c(F)cc(N3CCC4(CN(C(=O)CN5CCN6c7cc8c(cc7OC[C@@H]6C5)C(=O)N(C5CCC(=O)NC5=O)C8)C4)C3)cc2F)N1CC(F)F` (stereo partly drawn) [Compound B37, 3-((S)-3-(2-(6-(4-((6S,8R)-7-(2,2-difluoroethyl)-8-methyl-6,7,8,9-tetrahydro-3H-pyrazolo[4,3-f]isoquinolin-6-yl)-3,5-difluorophenyl)-2,6-diazaspiro[3.4]octan-2-yl)-2-oxoethyl)-8-oxo-1,2,3,4,4a,5,8,10-octahydro-9H-pyrazino[1′,2′:4,5][1,4]oxazino[2,3-f]isoindol-9-yl)piperidine-2,6-dione], on ER, the DC50 is less than 10 nM. Moreover, the half-maximal inhibitory concentration (IC50) in test [1] is less than 1 nM.

Regarding `C[C@@H]1Cc2c(ccc3[nH]ncc23)[C@@H](c2ccc(N3CC4(CCC(CN5CCN6c7cc8c(cc7N(C)C[C@@H]6C5)C(=O)N(C5CCC(=O)NC5=O)C8)CC4)C3)cn2)N1CC(F)(F)F` (stereo partly drawn) [Compound B59, 3-((S)-6-methyl-3-((2-(6-((6S,8R)-8-methyl-7-(2,2,2-trifluoroethyl)-6,7,8,9-tetrahydro-3H-pyrazolo[4,3-f]isoquinolin-6-yl)pyridin-3-yl)-2-azaspiro[3.5]nonan-7-yl)methyl)-8-oxo-2,3,4,4a,5,6,8,10-octahydropyrazino[1,2-a]pyrrolo[3,4-g]quinoxalin-9(1H)-yl)piperidine-2,6-dione], the DC50 at ER was less than 10 nM. Also, the IC50 in test [1] was 1 to 10 nM.

With `COc1cc(N2CCC3(CC2)CC(CN2CCN4c5ccc6c(c5OC[C@H]4C2)CN(C2CCC(=O)NC2=O)C6=O)C3)ccc1[C@@H]1c2ccc3[nH]ncc3c2C[C@@H](C)N1CC(F)F` (stereo partly drawn) [Compound B82, 3-((R)-7-((7-(4-((6S,8R)-7-(2,2-difluoroethyl)-8-methyl-6,7,8,9-tetrahydro-3H-pyrazolo[4,3-f]isoquinolin-6-yl)-3-methoxyphenyl)-7-azaspiro[3.5]nonan-2-yl)methyl)-1-oxo-1,3,5,5a,6,7,8,9-octahydro-2H-pyrazino[1′,2′:4,5][1,4]oxazino[2,3-e]isoindol-2-yl)piperidine-2,6-dione], on ER, the half-maximal degradation concentration (DC50) lay in the range of 10 to 100 nM. Further, the IC50 in test [1] was less than 1 nM.

For the compound `C[C@@H]1Cc2c(ccc3[nH]ncc23)[C@@H](c2c(F)cc(NC3CN(C(=O)CN4CCN5c6cc7c(cc6OC[C@@H]5C4)C(=O)N(C4CCC(=O)NC4=O)C7)C3)cc2F)N1CC(F)F` (stereo partly drawn) [Compound B26, 3-((S)-3-(2-(3-((4-((6S,8R)-7-(2,2-difluoroethyl)-8-methyl-6,7,8,9-tetrahydro-3H-pyrazolo[4,3-f]isoquinolin-6-yl)-3,5-difluorophenyl)amino)azetidin-1-yl)-2-oxoethyl)-8-oxo-1,2,3,4,4a,5,8,10-octahydro-9H-pyrazino[1′,2′:4,5][1,4]oxazino[2,3-f]isoindol-9-yl)piperidine-2,6-dione], the 50% degradation concentration (DC50) at ER was less than 10 nM. In addition, the IC50 in test [1] was less than 1 nM.

For the compound `C[C@@H]1Cc2c(ccc3[nH]ncc23)[C@@H](c2c(F)cc(N3CCC4(CCN(C(=O)CN5CCN6c7cc8c(cc7OC[C@@H]6C5)C(=O)N(C5CCC(=O)NC5=O)C8)CC4)C3)cc2F)N1CC(F)F` (stereo partly drawn) [Compound B23, 3-((S)-3-(2-(2-(4-((6S,8R)-7-(2,2-difluoroethyl)-8-methyl-6,7,8,9-tetrahydro-3H-pyrazolo[4,3-f]isoquinolin-6-yl)-3,5-difluorophenyl)-2,8-diazaspiro[4.5]decan-8-yl)-2-oxoethyl)-8-oxo-1,2,3,4,4a,5,8,10-octahydro-9H-pyrazino[1′,2′:4,5][1,4]oxazino[2,3-f]isoindol-9-yl)piperidine-2,6-dione], the DC50 on ER is less than 10 nM. Moreover, the IC50 in test [1] is less than 1 nM.

`C[C@@H]1Cc2c(ccc3[nH]ncc23)[C@@H](c2c(F)cc(N3CCC4(CN(CC(=O)N5CCN6c7cc8c(cc7OC[C@@H]6C5)C(=O)N(C5CCC(=O)NC5=O)C8)C4)C3)cc2F)N1CC(F)F` (stereo partly drawn) [Compound B41, 3-((S)-3-(2-(6-(4-((6S,8R)-7-(2,2-difluoroethyl)-8-methyl-6,7,8,9-tetrahydro-3H-pyrazolo[4,3-f]isoquinolin-6-yl)-3,5-difluorophenyl)-2,6-diazaspiro[3.4]octan-2-yl)acetyl)-8-oxo-1,2,3,4,4a,5,8,10-octahydro-9H-pyrazino[1′,2′:4,5][1,4]oxazino[2,3-f]isoindol-9-yl)piperidine-2,6-dione]: the DC50 at ER was less than 10 nM. Moreover, in test [1], the IC50 was less than 1 nM.

Take `COc1c2c(cc3c1CN(C1CCC(=O)NC1=O)C3=O)CN(CC(=O)N1CC3(CCN(c4cc(F)c([C@@H]5c6ccc7[nH]ncc7c6C[C@@H](C)N5CC(F)F)c(F)c4)CC3)C1)C2` (stereo partly drawn) [Compound B73, 3-(6-(2-(7-(4-((6S,8R)-7-(2,2-difluoroethyl)-8-methyl-6,7,8,9-tetrahydro-3H-pyrazolo[4,3-f]isoquinolin-6-yl)-3,5-difluorophenyl)-2,7-diazaspiro[3.5]nonan-2-yl)-2-oxoethyl)-4-methoxy-1-oxo-3,5,6,7-tetrahydropyrrolo[3,4-f]isoindol-2(1H)-yl)piperidine-2,6-dione]: at ER, the 50% degradation concentration (DC50) lay within 10 to 100 nM. Besides, the half-inhibitory concentration (IC50) in test [1] is less than 1 nM.

As for `C[C@@H]1Cc2c(ccc3[nH]ncc23)[C@@H](c2c(F)cc(N3CC4(CCN(C(=O)CN5CCN6c7cc8c(cc7OC[C@@H]6C5)C(=O)N(C5CCC(=O)NC5=O)C8)CC4)C3)cc2F)N1CC(F)F` (stereo partly drawn) [Compound B22, 3-((S)-3-(2-(2-(4-((6S,8R)-7-(2,2-difluoroethyl)-8-methyl-6,7,8,9-tetrahydro-3H-pyrazolo[4,3-f]isoquinolin-6-yl)-3,5-difluorophenyl)-2,7-diazaspiro[3.5]nonan-7-yl)-2-oxoethyl)-8-oxo-1,2,3,4,4a,5,8,10-octahydro-9H-pyrazino[1′,2′:4,5][1,4]oxazino[2,3-f]isoindol-9-yl)piperidine-2,6-dione], the DC50 at ER was less than 10 nM. Further, the concentration for half-maximal inhibition (IC50) in test [1] was less than 1 nM.

For the compound `C[C@@H]1Cc2c(ccc3[nH]ncc23)[C@@H](c2ccc(N3CC4(CCC(CN5CCN6c7ccc8c(c7OC[C@@H]6C5)CN(C5CCC(=O)NC5=O)C8=O)CC4)C3)cn2)N1CC(F)F` (stereo partly drawn) [Compound B87, 3-((S)-7-((2-(6-((6S,8R)-7-(2,2-difluoroethyl)-8-methyl-6,7,8,9-tetrahydro-3H-pyrazolo[4,3-f]isoquinolin-6-yl)pyridin-3-yl)-2-azaspiro[3.5]nonan-7-yl)methyl)-1-oxo-1,3,5,5a,6,7,8,9-octahydro-2H-pyrazino[1′,2′:4,5][1,4]oxazino[2,3-e]isoindol-2-yl)piperidine-2,6-dione], the DC50 on ER was less than 10 nM. Besides, the 50% inhibitory concentration (IC50) in test [1] fell in the range of 1 to 10 nM.

On to `COc1cc(N2CCC3(CC2)OCC(CN2CCN4c5cc6c(cc5OC[C@H]4C2)C(=O)N(C2CCC(=O)NC2=O)C6)CO3)ccc1[C@@H]1c2ccc3[nH]ncc3c2C[C@@H](C)N1CC(F)F` (stereo partly drawn) [Compound B115, 3-((R)-3-((9-(4-((6S,8R)-7-(2,2-difluoroethyl)-8-methyl-6,7,8,9-tetrahydro-3H-pyrazolo[4,3-f]isoquinolin-6-yl)-3-mcthoxyphenyl)-1,5-dioxa-9-azaspiro[5.5]undecan-3-yl)methyl)-8-oxo-1,2,3,4,4a,5,8,10-octahydro-9H-pyrazino[1′,2′:4,5][1,4]oxazino[2,3-f]isoindol-9-yl)piperidine-2,6-dione], for which, at ER, the DC50 was less than 10 nM. In addition, the 50% inhibitory concentration (IC50) in test [1] was less than 1 nM.
